# Assay results from patent US20250276116A1, “METHODS OF […] DUE TO EXTR[…] OXYGENATION” (Tufts Medical Center, Inc., priority 2021, published 2025).
# “Also recorded” adds a separate entry of the source.
# What was measured:
# [1] = system: ischemia-reperfusion injury (AMI, LAD occlusion); assay: Swine AMI model: intracoronary elamipretide before VA-ECMO, reperfusion delayed 30 minutes, then 180 minutes of reperfusion; format: in vivo
# Protocol: To begin exploring whether stabilizing CL activity can limit myocardial infarct size during VA-ECMO support for AMI, we employed an over-the-wire coronary angioplasty balloon to delivery elamipretide into the area at risk while maintaining occlusion of the LAD. We treated adult male swine with a single IC injection of either elamipretide (0.05 ug/kg/minute IC over 10 minutes) or vehicle prior to initiating VA-ECMO and then delayed coronary reperfusion for 30 minutes, thereby allowing the drug to reach the area at risk and stabilize CL. Elamipretide was continued as an IV infusion (0.05 ug/kg/minute) during 180 minutes of reperfusion. […] Elamipretide dosing was based on prior reports (Kloner et al., J. Am. Heart Assoc. 1(3):e001644, 2012; Gibson et al., Eur. Heart J. 37(16):1296-1303, 2016).
# [2] = system: cardiolipin; assay: Mitochondrial cardiolipin in the infarct zone, swine IRI with ECMO / EC-Pella (FIGS. 9C-9D); format: in vivo; conditions: to a similar degree as pre-emptive ECPella
# Protocol: Ischemia-reperfusion injury (IRI) was induced in adult swine via percutaneous occlusion of the left anterior descending artery (LAD) for 90 minutes, followed by activation of either ECMO alone for 30 minutes or EC-Pella for 45 minutes with persistent LAD occlusion. All groups underwent 180 minutes of reperfusion (n=4-6/group). To study whether the sequence of device activation impacts infarct size, we compared activation of ECMO alone for 30 minutes followed by simultaneous Impella CP for 15 minutes (Bailout EC-Pella) versus Impella CP activation for 30 minutes followed by simultaneous ECMO for 15 minutes (Pre-emptive EC-Pella) before reperfusion. LV hemodynamics and ventriculo-arterial (VA) coupling were assessed.
# Compared to IRI and ECMO alone, EC-Pella decreased PVA when applied as pre-emptive ECPella but not Bailout ECPella (FIG. 7). Both EC-Pella configurations decreased infarct size (FIG. 8A), increased cardioprotective signaling via the reperfusion injury salvage kinase pathway (FIG. 8B), and reduced apoptosis and pro-apoptotic signaling (FIG. 8C). Pre-emptive, but not bailout, ECPella preserved mitochondrial […] tafazzin levels (FIGS. 9A-B), increased mitochondrial cardiolipin levels (FIG. 9C), and reduced the ratio of immature: mature cardiolipin (MLCL: CL ratio; FIG. 9D) within the infarct zone compared to ECMO alone.
# [3] = system: LV infarct scar after AMI; assay: Late-term outcomes in swine 28 days after AMI with VA-ECMO, with or without cardioprotective drug; format: in vivo; conditions: at 30 days; VA-ECMO + elamipretide vs reperfusion alone or VA-ECMO alone before reperfusion; FIG. 6
# Protocol: To explore late-term outcomes after VA-ECMO with or without cardioprotective drug therapy in AMI, we decannulated, recovered, and monitored swine for 28 days after peripheral cannulation for VA-ECMO support. Adult male swine were subjected to coronary occlusion followed by reperfusion alone or VA-ECMO before reperfusion for 180 minutes. In a separate group, swine were treated with a cardioprotective agent before initiation of VA-ECMO with a 30-minute delay to reperfusion. After 28 days, we identified for the first time that compared to reperfusion alone, VA-ECMO increases infarct scar size and impairs LV function after AMI (FIGS. 5A and 5B). […] These findings support our central hypothesis that VA-ECMO promotes LV scar after AMI and further that treatment with a cardioprotective agent reduces LV scar size 30 days after AMI, which may have broad reaching implications for any patient with acute myocardial infarction or patients at risk of developing cardiac impairment while receiving VA-ECMO. Broad groups of patients may be treated using this approach including, e.g., all AMI patients and all patients treated with VA-ECMO. Indications include, for example, cardiogenic shock, heart failure, lung failure, myocarditis, trauma, and arrhythmia. […] (FIG. 6).
# [4] = system: anterior ST-segment elevation myocardial infarction; conditions: IV elamipretide given before reperfusion; cited from earlier work
# [5] = elamipretide plus VA-ECMO, FIG. 4C
substance,measurement,setting,value
"D-Arg-2′,6′-Dmt-Lys-Phe-NH2 [elamipretide]",reduction of infarct size compared to IRI plus VA-ECMO support,"[1]; adult male swine, 0.05 ug/kg/minute IC over 10 minutes before VA-ECMO, reperfusion delayed 30 minutes, IV infusion during 180 minutes reperfusion, vs vehicle",70%
same,reduction of infarct size compared to IRI alone,"[1]; adult male swine, elamipretide IC before VA-ECMO, reperfusion delayed 30 minutes",55%
same,infarct size compared to reperfusion without VA-ECMO (in words),[1]; elamipretide before initiation of VA-ECMO,significantly reduces infarct size
same,MLCL:CL ratio in the infarct zone,"[1]; elamipretide plus VA-ECMO, FIG. 4B",decreased
same,H202 levels in the infarct zone,[1]; [5],decreased
same,mitochondrial protease activity in the infarct zone,[1]; [5],decreased
same,ETC complex function,"[1]; elamipretide plus VA-ECMO, FIG. 4E",improved ETC complex function
same,"infarct size compared to IRI alone, elamipretide without VA-ECMO","[1]; elamipretide treatment without VA-ECMO, FIG. 4A",failed to reduce infarct size; also recorded: did not reduce infarct size
same,mitochondrial cardiolipin levels in the infarct zone,[2]; FIG. 9C,increases cardiolipin
same,mono-lysl cardiolipin: mature cardiolipin (MLCL:CL) ratio in the infarct zone,[2]; FIG. 9D,reduces
same,infarct (LV) scar size,[3],reduced infarct scar size; also recorded: can limit LV scar size
same,infarct size in humans (EMBRACE-STEMI Trial),[4],failed to reduce infarct size
